Data reported in patent publication US10730863B2, “Bridged bicyclic compounds as farnesoid X receptor modulators” (BRISTOL-MYERS SQUIBB COMPANY, priority 2017, dated 2020).

Molecular target: FXR (Homo sapiens (Human), UniProt Q96RI1)
Assay: FXR EC50 (FXR agonist activity reported with each example)
Assay type: cell-based

Chain of FXR (Q96RI1 262-486): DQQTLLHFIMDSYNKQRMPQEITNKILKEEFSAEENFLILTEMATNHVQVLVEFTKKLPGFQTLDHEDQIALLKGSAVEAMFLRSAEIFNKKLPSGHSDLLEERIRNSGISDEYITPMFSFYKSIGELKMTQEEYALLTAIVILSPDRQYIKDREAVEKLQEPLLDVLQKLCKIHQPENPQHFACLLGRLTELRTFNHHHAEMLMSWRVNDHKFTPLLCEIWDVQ

Compound | EC50
O=C(O)c1ccc(-c2nc(C34CCC(OCc5c(-c6ccccc6C(F)(F)F)noc5C5CC5)(CC3)CC4)no2)cc1 [Example 21, 4-(3-(4-((5-cyclopropyl-3-(2-(trifluoromethyl)phenyl)isoxazol-4-yl)methoxy)bicyclo[2.2.2]octan-1-yl)-1,2,4-oxadiazol-5-yl)benzoic acid] | 880 nM
O=C(O)c1cccc(/C=C/C23CCC(OCc4c(-c5ccccc5OC(F)(F)F)noc4C4CC4)(CC2)CC3)c1 [Example 40] | 100 nM
O=C(O)c1cccc(-c2noc(C34C5C6C3C3C4C5C63COCc3c(-c4c(Cl)cccc4Cl)noc3C3CC3)n2)c1 (centres unmarked) [Example 513, 3-(5-(4-(((5-cyclopropyl-3-(2,6-dichlorophenyl)isoxazol-4-yl)methoxy)methyl)cuban-1-yl)-1,2,4-oxadiazol-3-yl)benzoic acid] | 960 nM
CCc1cc(C(=O)O)nc2ccc(OCC34CCC(OCc5c(-c6c(Cl)cncc6Cl)noc5C5CC5)(CC3)CC4)cc12 [Example 347] | 24 nM
O=C(O)c1ccc(-c2noc(C34CCC(COCc5c(-c6ccccc6OC(F)(F)F)noc5C5CC5)(CC3)CC4)n2)cc1 [Example 154] | 960 nM
Cc1nc(OCC23CCC(OCc4c(-c5c(Cl)cncc5Cl)noc4C4CC4)(CC2)CC3)sc1C(=O)O [Example 318] | 180 nM
O=C(O)c1cccc(NC(=O)C23CCC(C=Cc4c(-c5c(Cl)cccc5Cl)noc4C4CC4)(CC2)C3)c1 [Example 230] | 890 nM
O=C(O)c1ccc(-c2noc(C34CCC(COCc5c(-c6c(Cl)cccc6Cl)noc5C5CC5)(CC3)CC4)n2)cc1 [Example 152] | 140 nM
Cn1cc(C(=O)O)c2ccc(C34CCC(OCc5c(-c6c(Cl)cccc6Cl)noc5C5CC5)(CC3)CC4)nc21 [Example 135, 6-(4-((5-cyclopropyl-3-(2,6-dichlorophenyl)isoxazol-4-yl)methoxy)bicyclo[2.2.2]octan-1-yl)-1-methyl-1H-pyrrolo[2,3-b]pyridine-3-carboxylic acid] | 9 nM
O=C(O)c1cc(OC(F)F)c2cc(OCC34CCC(OCc5c(-c6c(Cl)cncc6Cl)noc5C5CC5)(CC3)CO4)ccc2n1 [Example 471, 6-((4-((5-cyclopropyl-3-(3,5-dichloropyridin-4-yl)isoxazol-4-yl)methoxy)-2-oxabicyclo[2.2.2]octan-1-yl)methoxy)-4-(difluoromethoxy)quinoline-2-carboxylic acid] | 200 nM
O=C(O)c1cccc2nc(C34CCC(/C=C/c5c(-c6c(Cl)cncc6Cl)noc5C5CC5)(CC3)CC4)sc12 [Example 503, (E)-2-(4-(2-(5-cyclopropyl-3-(3,5-dichloropyridin-4-yl)isoxazol-4-yl)vinyl)bicyclo[2.2.2]octan-1-yl)benzo[d]thiazole-7-carboxylic acid] | 31 nM
O=C(O)c1cccc(-c2noc(C34CCC(OCc5c(-c6c(Cl)cccc6Cl)noc5C5CC5)(CC3)CC4)n2)n1 [Example 13, 6-(5-(4-((5-cyclopropyl-3-(2,6-dichlorophenyl)isoxazol-4-yl)methoxy)bicyclo[2.2.2]octan-1-yl)-1,2,4-oxadiazol-3-yl)picolinic acid] | 270 nM
O=C(O)c1csc(C23CCC(COCc4c(-c5c(Cl)cccc5Cl)noc4C4CC4)(CC2)CC3)n1 [Example 162, 2-(4-(((5-cyclopropyl-3-(2,6-dichlorophenyl)isoxazol-4-yl)methoxy)methyl)bicyclo[2.2.2]octan-1-yl)thiazole-4-carboxylic acid] | 1300 nM
O=C(O)c1cccc(C23CCC(COCc4c(-c5c(Cl)cncc5Cl)noc4C4CC4)(CC2)CO3)c1 [Example 511, 3-(4-(((5-cyclopropyl-3-(3,5-dichloropyridin-4-yl)isoxazol-4-yl)methoxy)methyl)-2-oxabicyclo[2.2.2]octan-1-yl)benzoic acid] | 2900 nM
COc1cc(OCC23CCC(OCc4c(-c5c(Cl)cncc5Cl)noc4C4CC4)(CC2)CC3)ccc1C(=O)O [Example 358] | 52 nM
COc1cc(C(=O)O)nc2ccc(C#CC34CCC(OCc5c(-c6c(Cl)cncc6Cl)noc5C5CC5)(CC3)CC4)cc12 [Example 375] | 57 nM
O=C(O)c1cc(OCC23CCC(OCc4c(-c5c(Cl)cncc5Cl)noc4C4CC4)(CC2)CC3)ccc1F [Example 277] | 47 nM
O=C(O)c1cccc(OCC23CCC(OCc4c(-c5c(Cl)cccc5Cl)noc4C4CC4)(CC2)CC3)n1 [Example 110, 6-((4-((5-cyclopropyl-3-(2,6-dichlorophenyl)isoxazol-4-yl)methoxy)bicyclo[2.2.2]octan-1-yl)methoxy)picolinic acid] | 52 nM
O=C(O)c1cc(C#CC23CCC(OCc4c(-c5c(Cl)cncc5Cl)noc4C4CC4)(CC2)CC3)cc2[nH]ccc12 [Example 415] | 63 nM
FC(F)(F)Oc1ccccc1-c1noc(C2CC2)c1COC12CCC(/C=C/c3cccc(-c4nnn[nH]4)c3)(CC1)CC2 [Example 8, (E)-4-(((4-(3-(1H-tetrazol-5-yl)styryl)bicyclo[2.2.2]octan-1-yl)oxy)methyl)-5-cyclopropyl-3-(2-(trifluoromethoxy)phenyl)isoxazole] | 380 nM
O=C(O)c1ccc(-c2noc(C34CCC(OCc5c(-c6ccccc6OC(F)(F)F)noc5C5CC5)(CC3)CC4)n2)cn1 [Example 12, 5-(5-(4-((5-cyclopropyl-3-(2-(trifluoromethoxy)phenyl)isoxazol-4-yl)methoxy)bicyclo[2.2.2]octan-1-yl)-1,2,4-oxadiazol-3-yl)picolinic acid] | 1200 nM
O=C(O)c1ccc(-c2noc(C34CCC(OCc5c(-c6c(Cl)cncc6Cl)noc5C5CC5)(CC3)CO4)n2)cc1 [Example 218] | 160 nM
O=C(O)c1cc(-c2noc(C34CCC(OCc5c(-c6c(Cl)cncc6Cl)noc5C5CC5)(CC3)CC4)n2)cc(OC2CC2)n1 [Example 260, 6-cyclopropoxy-4-(5-(4-((5-cyclopropyl-3-(3,5-dichloropyridin-4-yl)isoxazol-4-yl)methoxy)bicyclo[2.2.2]octan-1-yl)-1,2,4-oxadiazol-3-yl)picolinic acid] | 39 nM
COc1ccc(C(=O)O)c2ccc(C34CCC(OCc5c(-c6c(Cl)cncc6Cl)noc5C5CC5)(CC3)CC4)nc12 [Example 371] | 18 nM
O=C(O)c1cc(C(F)(F)F)c2nc(C34CCC(OCc5c(-c6c(Cl)cncc6Cl)noc5C5CC5)(CC3)CC4)ccc2c1 [Example 370] | 56 nM
O=C(O)c1cccc(NC(=O)C23CCC(C=Cc4c(-c5c(Cl)cccc5Cl)noc4C4CC4)(CC2)CC3)c1 [Example 188] | 120 nM
O=C(O)c1ccc(NC(=S)C23CCC(COCc4c(-c5c(Cl)cccc5Cl)noc4C4CC4)(CC2)CC3)c(Cl)c1 [Example 171, 3-chloro-4-(4-(((5-cyclopropyl-3-(2,6-dichlorophenyl)isoxazol-4-yl)methoxy)methyl)bicyclo[2.2.2]octane-1-carbothioamido)benzoic acid] | 4700 nM
CC(C)c1onc(-c2ccccc2OC(F)(F)F)c1COC12CCC(c3nc(-c4ccc(C(=O)O)cc4)no3)(CC1)CC2 [Example 26] | 980 nM
O=C(O)c1ccc(OCC23CCC(OCc4c(-c5c(Cl)cccc5Cl)noc4C4CC4)(CC2)CC3)cc1 [Example 99, 4-((4-((5-cyclopropyl-3-(2,6-dichlorophenyl)isoxazol-4-yl)methoxy)bicyclo[2.2.2]octan-1-yl)methoxy) benzoic acid] | 140 nM
